System: C2C12 myotubes
Experiment: In vitro puromycin incorporation (muscle protein synthesis) in differentiated C2C12 myotubes stimulated with insulin + leucine, Western blot
Assay type: cell-based, mouse
Experimental: C2C12 mouse myoblasts are obtained from the American Type Culture Source Collection (no. CRL-1772). Myoblasts are cultured at 37° C. in an atmosphere of 5% CO2 in grown medium consisting of Dulbecco's modified Eagle's medium (DMEM) supplemented with 10% fetal calf serum and antibiotics. Myotube C2C12 differentiation is induced by withdrawing fetal calf serum from confluent cells and adding 10 μg/ml insulin, 5 μg/ml transferrin and 2% horse serum. 8-days-differentiated C2C12 myotubes are treated with medium containing EPA and/or MA for 16 hours. After a 4-hour starvation period, C2C12 myotubes were treated with insulin (100 nM)+Leucine (5 mM) for in total 60 min. A limitation of growing myotubes in vitro is that the cells are not able to produce insulin when administered leucine whereas in vivo the pancreas starts producing insulin when leucine is administered to a subject. Common to this model, to compensate for this limitation, the in vitro experiment requires the separate administration of insulin. […] By western-Blot analyses the level of protein synthesis was analyzed. This gives quantitative information on the incorporation of puromycin which is a measure for intracellular pathways regulating protein synthesis (Akt, mTOR) and/or a direct measure of protein synthesis. […]

CCCCCCCCCCCCCC(=O)O [MA, myristic acid]
puromycin incorporation, individual fatty acid (25 μM EPA without MA, or 25 or 50 μM MA without EPA, 16 hours, then insulin (100 nM)+Leucine (5 mM) 60 min, relative to control without stimulation and without fatty acids (indexed at 100)): have an effect on puromycin incorporation
puromycin incorporation, effect of raising MA from 25 μM to 50 μM vs adding 25 μM EPA to 25 μM MA (MA without EPA, 25 μM vs 50 μM, insulin + leucine stimulation): much smaller effect
